Read-outs that look alike come from different tables or passages of the source.
Experiments:
Assay in all cases: Gel-based competitive ABPP in vitro, mouse brain membrane proteome
Type in all cases: biochemical
[1] = target: T1, ABHD6 (Mus musculus, UniProt Q8R2Y0)
T1 construct: from tissue; host or cells: mouse brain, membrane fraction
T1 sequence (Q8R2Y0 1-336): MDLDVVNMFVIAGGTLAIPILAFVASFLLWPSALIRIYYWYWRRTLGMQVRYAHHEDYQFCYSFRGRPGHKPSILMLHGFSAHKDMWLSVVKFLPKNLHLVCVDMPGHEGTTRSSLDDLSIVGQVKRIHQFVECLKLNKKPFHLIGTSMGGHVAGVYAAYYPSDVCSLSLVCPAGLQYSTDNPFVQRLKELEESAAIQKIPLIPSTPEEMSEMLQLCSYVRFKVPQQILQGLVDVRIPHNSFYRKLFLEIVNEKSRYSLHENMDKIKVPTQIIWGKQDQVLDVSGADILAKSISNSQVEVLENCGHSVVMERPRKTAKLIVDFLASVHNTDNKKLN
Procedure: (§1) Assay Overview: The purpose of this assay was to determine whether test compounds can inhibit LYPLA1 and LYPLA2 in a complex proteomic lysate and to assess anti-target inhibition using a competitive activity-based proteomic profiling (ABPP) assay. In this assay, a complex proteome endogenously expressing LYPLA1/2 was incubated with test compound followed by reaction with a rhodamine-conjugated fluorophosphonate (FP-Rh) serine-hydrolase specific activity-based probe. The reaction products were separated by SDS-PAGE and visualized in-gel using a flatbed fluorescence scanner. The percentage activity remaining was determined by measuring the integrated optical density of the bands. […] Percent inhibition was calculated relative to a DMSO (no compound) control.
(§2) Protocol Summary: Mouse brain membrane proteome (50 μL reaction volume, 1 mg/mL in DPBS) was treated with 0.1-100 μM test compound (1 μL of a 50× stock in DMSO) for 30 minutes at 37° C. FP-Rh (1 μL of 50× stock in DMSO, Thermo #88318) was added to a final concentration of 2 μM. The reactions were incubated for 30 minutes at 25° C., quenched with 16 μL 4×SDS-PAGE loading buffer (reducing), separated by SDS-PAGE and visualized by in-gel fluorescent scanning. The percentage activity remaining was determined by measuring the integrated optical density of the bands relative to a DMSO-only (no compound) control. Assay Cutoff: Compounds with ≥50% inhibition of targets at 1 μM test compound concentration were considered active.
(§3) Assay Overview: The purpose of this assay was to determine IC50 values of powder samples of test compounds for enzyme of interest activity, and anti-targets in a complex proteomic lysate using a gel-based competitive ABPP assay. In this assay, a complex proteome was incubated with test compound followed by reaction with FP-Rh and SDS-PAGE analysis as described above.
(§4) Protocol Summary: Soluble HeLa cell proteome (50 μL reaction volume, 1 mg/mL in DPBS) or mouse brain membrane proteome (50 μL reaction volume, 1 mg/mL in DPBS) was treated with varying concentrations of test compound (1 μL of a 50× stock in DMSO) for 30 minutes at 37° C. FP-Rh (1 μL of 50× stock in DMSO) was added to a final concentration of 2 μM. The reaction was incubated for 30 minutes at 25° C., quenched with 16 μL 4×SDS-PAGE loading buffer (reducing), separated by SDS-PAGE and visualized by in-gel fluorescent scanning. The percentage activity remaining was determined by measuring the integrated optical density of the enzymes of interest, and anti-target bands relative to a DMSO-only (no compound) control. IC50 values were determined from dose-response curves from three replicates at each inhibitor concentration: 1, 10, 100, 1000, 10000 nM and 0.01, 0.1, 1, 10, 100, 1000, 10000, 50000, and 100000 nM.

[2] = target: T2, FAAH (Mus musculus, UniProt O08914); settings: for FAAH in vitro enzyme activity, % @ 10 μM: mouse brain (mem) proteome
T2 construct: from tissue; host or cells: mouse brain, membrane fraction
T2 sequence (O08914 1-579): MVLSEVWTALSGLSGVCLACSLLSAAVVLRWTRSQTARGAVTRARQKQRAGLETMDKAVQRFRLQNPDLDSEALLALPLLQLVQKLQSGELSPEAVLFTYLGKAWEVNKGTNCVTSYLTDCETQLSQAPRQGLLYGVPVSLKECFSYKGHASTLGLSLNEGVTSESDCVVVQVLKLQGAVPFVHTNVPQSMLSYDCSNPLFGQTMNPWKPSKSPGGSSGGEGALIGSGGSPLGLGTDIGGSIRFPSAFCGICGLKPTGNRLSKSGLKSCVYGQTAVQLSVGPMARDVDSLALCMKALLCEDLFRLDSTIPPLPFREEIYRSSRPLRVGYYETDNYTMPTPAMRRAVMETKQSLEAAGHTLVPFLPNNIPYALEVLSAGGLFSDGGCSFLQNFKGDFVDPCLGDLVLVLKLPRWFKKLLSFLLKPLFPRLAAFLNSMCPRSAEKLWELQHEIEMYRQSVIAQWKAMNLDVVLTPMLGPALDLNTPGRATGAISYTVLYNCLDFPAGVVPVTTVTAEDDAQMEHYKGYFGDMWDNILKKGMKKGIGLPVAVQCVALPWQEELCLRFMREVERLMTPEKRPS
Procedure: as §1, §2, §3, §4

[3] = target: T3, ABHD12 (Mus musculus, UniProt Q99LR1); settings: mouse brain (mem) proteome
T3 construct: from tissue; host or cells: mouse brain, membrane fraction
T3 sequence (Q99LR1 1-398): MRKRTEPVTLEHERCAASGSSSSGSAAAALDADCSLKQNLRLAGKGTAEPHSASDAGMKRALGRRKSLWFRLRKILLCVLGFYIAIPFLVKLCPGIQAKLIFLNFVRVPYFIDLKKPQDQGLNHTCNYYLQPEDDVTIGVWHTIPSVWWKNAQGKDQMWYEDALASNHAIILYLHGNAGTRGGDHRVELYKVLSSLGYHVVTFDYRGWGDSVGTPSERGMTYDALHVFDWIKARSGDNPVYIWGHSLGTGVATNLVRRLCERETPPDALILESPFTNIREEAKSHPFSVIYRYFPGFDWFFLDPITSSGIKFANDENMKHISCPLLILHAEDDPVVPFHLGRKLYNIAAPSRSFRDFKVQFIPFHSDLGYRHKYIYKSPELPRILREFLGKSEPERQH
Procedure: as §1, §2

[4] = mouse ABHD6, in vitro, read-out: mABHD6 in vitro potency (IC50)

Row | Compound | ABHD6 in vitro enzyme activity, % @ 1 μM ([1]; mouse brain (mem) proteome) [% @] | FAAH in vitro enzyme activity, % @ 10 μM [2] [% @] | ABHD12 in vitro enzyme activity, % @ 10 μM [3] [% @] | IC50 [1, 4] [nM] | ABHD6 in vitro enzyme activity, % @ 20 μM ([1]; 20 μM, mouse brain (mem) proteome) [% @] | IC50 ([1]; anti-target, mouse brain membrane proteome, read-out: ABHD6 IC50) [nM] | selectivity for LYPLA1/2 over FAAH ([2]; LYPLA versus FAAH) [fold] | IC50 ([2]; anti-target, mouse brain membrane proteome) [nM]
1 | C#CCOc1ccc(N2CCN(C(=O)ON3C(=O)[C@@H]4CN(Cc5ccc(Oc6ccccc6)cc5)CCN4C3=O)CC2)cc1 [Compound 44, (S)-1,3-dioxo-7-(4-phenoxybenzyl)-hexahydroimidazo[1,5-a]pyrazin-2(3H)-yl 4-(4-(prop-2-ynyloxy)phenyl)piperazine-1-carboxylate] | 100 | 0 | 0 | – | – | – | – | –
2 | COc1ccc(N2CCN(C(=O)ON3C(=O)[C@H]4CN(CC5CCN(Cc6ccccc6)CC5)CCN4C3=O)CC2)cc1 [Compound 43, (R)-7-((1-benzylpiperidin-4-yl)methyl)-1,3-dioxo-hexahydroimidazo[1,5-a]pyrazin-2(3H)-yl 4-(4-methoxyphenyl)piperazine-1-carboxylate] | 100 | 0 | 0 | – | – | – | – | –
3 | C#Cc1ccc(CCC2CCN(C(=O)ON3C(=O)[C@H]4CN(C(=O)N5CCOCC5)CCN4C3=O)CC2)cc1 [Compound 49, (R)-7-(morpholine-4-carbonyl)-1,3-dioxo-hexahydroimidazo[1,5-a]pyrazin-2(3H)-yl 4-(4-ethynylphenethyl)piperidine-1-carboxylate] | 100 | 50 | 0 | – | – | – | – | –
4 | O=C(ON1C(=O)[C@H]2CN(C(=O)N3CCOCC3)CCN2C1=O)N1CCC(CCc2ccc(Cl)cc2)CC1 [Compound 51, (R)-7-(morpholine-4-carbonyl)-1,3-dioxohexahydroimidazo[1,5-a]pyrazin-2(3H)-yl 4-(4-chloro-phenethyl)piperidine-1-carboxylate] | 100 | 0 | 0 | 2.5 | – | – | – | –
5 | C#CCOc1ccc(N2CCN(C(=O)ON3C(=O)[C@H]4CN(Cc5ccc(Oc6ccccc6)cc5)CCN4C3=O)CC2)cc1 [Compound 45, (R)-1,3-dioxo-7-(4-phenoxybenzyl)-hexahydroimidazo[1,5-a]pyrazin-2(3H)-yl 4-(4-(prop-2-ynyloxy)phenyl)piperazine-1-carboxylate] | 100 | 0 | 0 | – | – | – | – | –
6 | O=C(ON1C(=O)C2CN(Cc3ccc(Oc4ccccc4)cc3)CCN2C1=O)N1CCC(c2ccccc2)CC1 (stereo not drawn) [Compound 38, 1,3-dioxo-7-(4-phenoxybenzyl)hexahydroimidazo[1,5-a]pyrazin-2(3H)-yl 4-phenylpiperidine-1-carboxylate] | – | – | – | – | 100 | – | – | –
7 | O=C(ON1C(=O)[C@@H]2CN(Cc3ccc(Br)cc3)CCN2C1=O)N1CCC(CCc2ccc(Cl)cc2)CC1 [Compound 40, (S)-7-(4-bromobenzyl)-1,3-dioxohexahydroimidazo[1,5-a]pyrazin-2(3H)-yl4-(4-chlorophenethyl)piperidine-1-carboxylate] | 100 | 50 | 0 | – | – | – | – | –
8 | COc1ccc(N2CCN(C(=O)ON3C(=O)[C@@H]4CN(CC5CCN(Cc6ccccc6)CC5)CCN4C3=O)CC2)cc1 [Compound 42, (S)-7-((1-benzylpiperidin-4-yl)methyl)-1,3-dioxo-hexahydroimidazo[1,5-a]pyrazin-2(3H)-yl 4-(4-methoxyphenyl)piperazine-1-carboxylate] | 100 | 0 | 0 | – | – | – | – | –
9 | C#CCOc1ccc(N2CCN(C(=O)ON3C(=O)[C@H]4CN(CC5CCN(Cc6ccccc6)CC5)CCN4C3=O)CC2)cc1 [Compound 47, (R)-7-((1-benzylpiperidin-4-yl)methyl)-1,3-dioxo-hexahydroimidazo[1,5-a]pyrazin-2(3H)-yl 4-(4-(prop-2-ynyloxy)phenyl)piperazine-1-carboxylate] | 100 | 0 | 0 | – | – | – | – | –
10 | O=C(ON1C(=O)[C@@H]2CN(C(=O)N3CCOCC3)CCN2C1=O)N1CCC(CCc2ccc(Cl)cc2)CC1 [Compound 50, (S)-7-(morpholine-4-carbonyl)-1,3-dioxohexahydroimidazo[1,5-a]pyrazin-2(3H)-yl 4-(4-chloro-phenethyl)piperidine-1-carboxylate] | 100 | 0 | 0 | 2.2 | – | – | – | –
11 | C#CCOc1ccc(N2CCN(C(=O)ON3C(=O)[C@@H]4CN(CC5CCN(Cc6ccccc6)CC5)CCN4C3=O)CC2)cc1 [Compound 46, (S)-7-((1-benzylpiperidin-4-yl)methyl)-1,3-dioxo-hexahydroimidazo[1,5-a]pyrazin-2(3H)-yl 4-(4-(prop-2-ynyloxy)phenyl)piperazine-1-carboxylate] | 100 | 0 | 0 | – | – | – | – | –
12 | O=C(ON1C(=O)C2CN(C(=O)N3CCOCC3)CCN2C1=O)N1CCC(CCc2ccc(Cl)cc2)CC1 (stereo not drawn) [Compound 1, 7-(morpholine-4-carbonyl)-1,3-dioxohexahydroimidazo[1,5-a]pyrazin-2(3H)-yl 4-(4-chloro-phenethyl)piperidine-1-carboxylate] | – | – | – | – | – | 3.15 | ~13 | 3150

Source: patent publication US9981972B2, “N-hydroxy bicyclic hydantoin carbamates as tools for identification of serine hydrolase targets” (ABIDE THERAPEUTICS, INC., priority 2014, dated 2018)
